Laboratory results as given in patent US20190152992A1, “BENZODIOXANE DERIVATIVES AND THEIR PHARMACEUTICAL USE” (Orion Corporation, priority 2016, published 2019).
Where a name gives a salt, the structure may show the parent alone.

Assays:
human alpha2A receptors = biological target: T1, human alpha2A receptors (Homo sapiens, UniProt P08913); experiment: cell-based
T1 sequence (P08913 1-465): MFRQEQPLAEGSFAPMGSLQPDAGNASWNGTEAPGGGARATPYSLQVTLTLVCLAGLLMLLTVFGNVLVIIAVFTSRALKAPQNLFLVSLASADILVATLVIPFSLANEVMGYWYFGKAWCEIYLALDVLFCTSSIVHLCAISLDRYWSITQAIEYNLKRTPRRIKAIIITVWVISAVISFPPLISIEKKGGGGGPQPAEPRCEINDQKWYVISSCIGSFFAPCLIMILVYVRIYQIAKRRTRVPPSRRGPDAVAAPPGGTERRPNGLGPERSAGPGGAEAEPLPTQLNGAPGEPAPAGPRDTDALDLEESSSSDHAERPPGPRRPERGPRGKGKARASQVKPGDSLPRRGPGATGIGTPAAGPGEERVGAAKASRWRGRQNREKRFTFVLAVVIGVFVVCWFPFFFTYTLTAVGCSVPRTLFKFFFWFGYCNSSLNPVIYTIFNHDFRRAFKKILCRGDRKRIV

human alpha2C receptors = biological target: T2, human alpha2C receptors (Homo sapiens, UniProt P18825); experiment: Determination of alpha2C antagonistic activity in vitro (FLIPR calcium assay); details: for Kb: Alpha 2C Adrenaline Kb, Kb calculated from IC50 with the Cheng-Prusoff equation, adrenaline as agonist, CHO cells, human alpha2C
T2 sequence (P18825 1-462): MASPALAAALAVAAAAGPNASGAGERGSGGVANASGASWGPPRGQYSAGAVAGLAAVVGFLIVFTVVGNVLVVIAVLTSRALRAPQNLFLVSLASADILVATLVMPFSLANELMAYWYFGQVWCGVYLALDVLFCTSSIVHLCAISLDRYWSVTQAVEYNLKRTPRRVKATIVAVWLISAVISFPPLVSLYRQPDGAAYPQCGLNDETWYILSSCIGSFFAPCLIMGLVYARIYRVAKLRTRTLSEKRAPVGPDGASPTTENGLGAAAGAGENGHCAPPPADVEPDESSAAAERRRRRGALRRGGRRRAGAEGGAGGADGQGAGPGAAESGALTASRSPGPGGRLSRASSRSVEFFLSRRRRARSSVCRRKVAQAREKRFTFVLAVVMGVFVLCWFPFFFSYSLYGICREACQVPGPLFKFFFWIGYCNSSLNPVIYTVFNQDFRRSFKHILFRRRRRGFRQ

Row | SMILES | IC50 (human alpha2A receptors) | Kb (human alpha2A receptors) | IC50 (human alpha2C receptors) | Kb (human alpha2C receptors)
1 | O=C1c2ccncc2CN1[C@H]1CCCN(C[C@H]2COc3ccccc3O2)C1 [example 76, 2-((S)-1-(((S)-2,3-Dihydrobenzo[b][1,4]dioxin-2-yl)methyl)piperidin-3-yl)-2,3-dihydro-1H-pyrrolo[3,4-c]pyridin-1-one] | > 10000 nM | > 449 nM | 1770 nM | 178 nM
2 | O=C1c2ccc(F)c(F)c2CN1[C@H]1CCCN(C[C@H]2COc3ccccc3O2)C1 [example 56, 2-((S)-1-(((S)-2,3-Dihydrobenzo[b][1,4]dioxin-2-yl)methyl)piperidin-3-yl)-4,5-difluoroisoindolin-1-one hydrochloride] | > 10000 nM | > 449 nM | 0.519 nM | 0.052 nM
3 | C[C@@H]1NC(=O)N([C@H]2CCCN(C[C@H]3COc4ccccc4O3)C2)C1=O [example 113, (S)-3-((S)-1-(((S)-2,3-Dihydrobenzo[b][1,4]dioxin-2-yl)methyl)-piperidin-3-yl)-5-methylimidazolidine-2,4-dione] | > 10000 nM | > 449 nM | 0.175 nM | 0.015 nM
4 | CC1=C(c2ccccc2)C(=O)N([C@H]2CCCN(C[C@H]3COc4ccccc4O3)C2)C1 [example 42, 1-((S)-1-(((S)-2,3-Dihydrobenzo[b][1,4]dioxin-2-yl)methyl)piperidin-3-yl)-4-methyl-3-phenyl-1H-pyrrol-2(5H)-one] | > 10000 nM | > 449 nM | 331 nM | 33.3 nM
5 | CC(C)c1nc2ccc(F)cc2n1[C@H]1CCCN(C[C@H]2COc3ccccc3O2)C1 [example 85, 1-((S)-1-(((S)-2,3-Dihydrobenzo[b][1,4]dioxin-2-yl)methyl)piperidin-3-yl)-6-fluoro-2-isopropyl-1H-benzo[d]imidazole] | > 10000 nM | > 449 nM | 1260 nM | 127 nM
6 | O=C1C2=C(CCCC2)C(=O)N1[C@H]1CCCN(C[C@H]2COc3ccccc3O2)C1 [example 94, 2-((S)-1-(((S)-2,3-Dihydrobenzo[b][1,4]dioxin-2-yl)methyl)-piperidin-3-yl)-4,5,6,7-tetrahydro-1H-isoindole-1,3(2H)-dione hydrochloride] | > 10000 nM | > 449 nM | < 0.1 nM | < 0.01 nM
7 | O=C1c2ccccc2C(=O)N1[C@H]1CCCN(C[C@H]2COc3ccccc3O2)C1 [example 61, 2-((S)-1-(((S)-2,3-Dihydrobenzo[b][1,4]dioxin-2-yl)methyl)piperidin-3-yl)isoindoline-1,3-dione] | > 10000 nM | > 449 nM | 0.062 nM | 0.006 nM
8 | C[C@H]1NC(=O)N([C@H]2CCCN(C[C@H]3COc4ccccc4O3)C2)C1=O [example 112, (R)-3-((S)-1-(((S)-2,3-Dihydrobenzo[b][1,4]dioxin-2-yl)methyl)-piperidin-3-yl)-5-methylimidazolidine-2,4-dione] | > 10000 nM | > 449 nM | 0.16 nM | 0.02 nM
9 | Cn1ncc2c1C(=O)N([C@H]1CCCN(C[C@H]3COc4ccccc4O3)C1)C2 [example 24, 5-((S)-1-(((S)-2,3-Dihydrobenzo[b][1,4]dioxin-2-yl)methyl)piperidin-3-yl)-1-methyl-4,5-dihydropyrrolo[3,4-c]pyrazol-6(1H)-one] | > 10000 nM | > 449 nM | 89.7 nM | 9.03 nM
10 | COc1ccccc1C1=CC(=O)N([C@H]2CCCN(C[C@H]3COc4ccccc4O3)C2)C1 [example 43, 1-((S)-1-(((S)-2,3-Dihydrobenzo[b][1,4]dioxin-2-yl)methyl)piperidin-3-yl)-4-(2-methoxyphenyl)-1H-pyrrol-2(5H)-one formate] | > 10000 nM | > 449 nM | < 0.01 nM | < 0.001 nM
11 | O=C1c2ccc(Cl)cc2CN1[C@H]1CCCN(C[C@H]2COc3ccccc3O2)C1 [example 60, 5-Chloro-2-((S)-1-(((S)-2,3-dihydrobenzo[b][1,4]dioxin-2-yl)methyl)piperidin-3-yl)isoindolin-1-one] | > 10000 nM | > 449 nM | < 0.1 nM | < 0.01 nM
